Test results: US20260217763A1, “Novel Peptide and Use Thereof” (Zincure Corp., priority 2022, published 2026)
Square brackets hold non-standard residues; d marks the D form. Ends that are not written are not given here. Peptide text beside a SMILES is read from it.

Key:
[1] = In vitro plasma stability assay; type: in vitro ADME, ICR mice; settings: 10 μM peptide, 37° C.; for stability in plasma over time: mouse plasma, 0 to 90 min, LC-MS
Description: FIG. 1 is a graph showing the results of measuring quantitative changes of alloferon L-type and alloferon D-type peptides by mass spectrometry to investigate their degradation in plasma from mice, where 10 µM of each alloferon peptide was treated in isolated plasma and were incubated at 37° C. for 0, 10, 30, 60, and 90 min.
As the present inventors believed that the mechanism of action of alloferon peptides is through endocytosis via multi-ligand receptors rather than physiological activity and that zinc-binding capacity is an important mechanism, they investigated the blood stability of the D-type alloferon of Example 1-2 in which all amino acids except glycine have been replaced with D-type amino acids and the L-type alloferon of Example 1-1. An in vitro plasma stability assay was performed to compare the stability of the L-type peptide and the D-type peptide of alloferon in the plasma of mice. For this purpose, 500 to 600 μl of blood was obtained from ICR mice by orbital blood sampling, which was subsequently centrifuged at 2000×g for 20 min at 4° C. using a centrifuge, and the supernatant was collected to obtain plasma. After adding 10 μM of the alloferon L-type and D-type peptides to 100 μl of the plasma, the plasma was incubated at 37° C. for 0, 5, 10, 30, 60, and 90 min. Then, 500 μl of cold methanol was added to precipitate the protein, and the protein was lyophilized and subjected to liquid chromatography and protein mass spectrometry.

[2] = test system: H4 cell lines (GL-H4) expressing GFP-linked LC3; assay: Analysis of autophagic flow blocked by bafilomycin A-1 (LC3-GFP spots); type: cell-based; settings: peptide 20 μM with Baf A1 100 nM, GL-H4 cells; FIGS. 2E and 2F
Description: FIGS. 2A to 2C are series of fluorescence micrographs of LC3-GFP spots 12 h after treating H4 cell line (GL-H4) that stably overexpresses GFP-LC3 protein with various variant alloferon peptides according to one embodiment of the present invention in combination with bafilomycin at a concentration of 20 μM, showing that autophagic flux blocked by bafilomycin A-1 is restored by the variant alloferon peptides according to one embodiment of the present invention. FIGS. 2D to 2F are graphs showing quantification of the fluorescence intensity of LC3-GFP spots 12 h after treatment of the GL-H4 cell line with the variant alloferon peptides according to one embodiment of the present invention in combination with bafilomycin at a concentration of 20 μM.
H4 cell line (GL-H4) and HEK293T cell line permanently transfected with GFP-LC3 plasmid were used in the present invention. The cell culture medium was Minimum Essential Medium (MEM, WellGene) supplemented with 10% fetal bovine serum (Hyclone, USA) and antibiotic and antifungal mixture (WellGene, Korea) and cultured in a cell culture machine at 37° C. and 5% CO2.
To investigate the effect of peptides comprising the amino acid sequences designated as SEQ ID NO: 3 to 16 on autophagic flow, the present inventors treated H4 cell lines (GL-H4) expressing GFP-linked LC3 with the peptides (20 μM) and/or the autophagic inhibitor Bafilomycin A-1 (Baf A1, 100 nM) to inhibit autophagy, and then the effect of the variant alloferon peptides according to one embodiment of the present invention was investigated by fluorescence microscopy analysis.

[3] = test system: EGFP-SOD1 G93A aggregates in HEK293T cell line; assay: SOD1 protein aggregates after SOD1 overexpression, Western blot; type: cell-based; settings: peptide with 100 nM bafilomycin, 18 h, HEK293T; FIG. 3B
Description: FIG. 3A is a result of Western blot analysis of the level of SOD1 protein expression in protein samples obtained 18 h after treatment of HEK293T cells transfected to express SOD1 with 100 nM bafilomycin A1 alone or in combination with 30 μM of some variant alloferon peptides according to one embodiment of the present invention, for investigating the degradation of SOD1 protein aggregates by treatment with some variant alloferon peptides (DALS1, DAL-VS_V(−Q), DAL1, and DALV2) according to one embodiment of the present invention. FIG. 3B is a graph representing the results of quantifying relative expression of the SOD1 protein. In FIG. 3B, * indicates a significant difference compared to the treatment with bafilomycin alone (* p<0.05).
(§1) The present inventors then investigated whether some of the variant peptides (DALS1, DALVS_V, DAL1, DALV2) comprising the amino acid sequences designated as SEQ ID NO: 3 through 16 could resolve SOD1 aggregates that formed after transient transfection of SOD1 protein into the 293T cell line. To this end, EGFP-SOD1 G93A DNA was transiently transfected into the HEK293T cell line using Lipofectamine 2000. After transfection, the cell lines were incubated in a cell culture machine at 37° C. and 5% CO2 for 30 h, and the culture medium was replaced with Minimum Essential Medium (MEM, Gibco, USA). Subsequently, the cells were pretreated with 100 nM bafilomycin for 30 min, which were then treated with μM variant alloferon peptide and incubated for 18 h. After that, proteinase inhibitors and phosphatase inhibitors (2 μg/ml aprotinin, 2 μg/ml leupeptin, 1 μg/ml pepstatin A, 1 mM phenyl-methylsulfonyl fluoride (PMSF), 1 mM Na3 VO4, 5 mM NaF and 10 mM Na4P2O7) were put into a 6-well culture dish at 200 μl per well to lyse the cells. The obtained cell lysate was first left at 30 min for 4° C. Then, it was subjected to protein quantification using BCA protein assay kit (Pierce Biotechnology, USA), and centrifuged at 17,000×g for 20 min, where the supernant was discarded and only the cell debris was taken to obtain protein. Subsequently, 5× sample buffer (300 mM Tris, pH 6.8, 10% SDS, 50% Glycerol, 0.1% BPB, 2.5% Mercaptoethanol, 100 mM DTT) was mixed with the quantified sample, denatured at 95° C. for 5 min, and prepared for analysis. Then, electrophoresis was performed using 8% to 15% SDS-polyacrylamide gel, and the proteins separated by their sizes were transferred to polyvinylidene difluoride (PVDF) membranes (Millipore, USA). The protein-transferred membranes were then blocked with 3% skim milk powder in TBST for 1 h. […] Protein signals were detected using enhanced chemiluminescence (INTRON Biotechnology, South Korea) and a bio-imaging system (MF-Chemibis, Shimadzu Scientific Korea Corporation, South Korea).

[4] = test system: P-Tau S214, P-Tau T205, unphosphorylated tau, p62, LC3, β-amyloid (APP); assay: Western blot of aggregate-forming proteins in cortex and hippocampus; type: in vivo; settings: 5×FAD mice
Description: The present inventors conducted a western blot analysis to investigate the expression of pathogenic aggregate-forming proteins in brain tissue, such as tau protein, p62, and LC3, other than β-amyloid from the results of Experimental examples 8-2 and 8-3 above.
Specifically, cortical and hippocampal tissues were obtained from experimental animals sacrificed after the behavioral experiments, and the tissues were lysed and subjected to Western blot analysis using antibodies that specifically bind to phosphorylated tau S214 (P-Tau S214), phosphorylated tau T205 (P-Tau T205), unphosphorylated tau, p62, LC3, and β-amyloid (APP), respectively.

[5] = test system: GFP-mHttQ74 aggregates in HEK293T cell line; assay: Mutant huntingtin protein aggregates after overexpression, Western blot; type: cell-based; settings: peptide 30 μM with 100 nM bafilomycin A1, 18 h, HEK293T; FIG. 6
Description: FIG. 6 is a result of Western blot analysis of the level of mutant huntingtin protein expression in protein samples obtained 18 h after treatment of HEK293T cells transfected to express mutant huntingtin protein with 100 nM bafilomycin A1 alone or in combination with 30 μM of some variant alloferon peptides according to one embodiment of the present invention, for investigating the degradation of mutant huntingtin protein aggregates by treatment with some variant alloferon peptides (DALS1, DAL-VS_V(−Q), DAL1, and DALV2) according to one embodiment of the present invention.
as §1, with “After that, proteinase inhibitors and phosphatase inhibitors (2 μg/ml aprotinin, 2 μg/ml leupeptin, 1 μg/ml pepstatin A, 1 mM phenyl-methylsulfonyl fluoride (PMSF), 1 mM Na3 VO4, 5 mM NaF and 10 mM Na4P2O7) were put into a 6-well culture dish at 200 μl per well to lyse the cells. The obtained cell lysate was first left at 30 min for 4° C.” left out, “analysis.” for “analysis. Then, electrophoresis was performed using 8% to 15% SDS-polyacrylamide gel, and the proteins separated by their sizes were transferred to polyvinylidene difluoride (PVDF) membranes (Millipore, USA). The protein-transferred membranes were then blocked with 3% skim milk powder in TBST for 1 h.”, “Korea). […]” for “Korea).”

[6] = test system: EGFP-α-synuclein A53T aggregates in HEK293T cell line; assay: α-synuclein protein aggregates after overexpression, Western blot; type: cell-based; settings: peptide with 100 nM bafilomycin A1, 18 h, HEK293T; FIG. 5
Description: FIG. 5 is a result of Western blot analysis of the level of α-synuclein protein expression in protein samples obtained 18 h after treatment of HEK293T cells transfected to express α-synuclein with 100 nM bafilomycin A1 alone or in combination with 30 µM of some variant alloferon peptides according to one embodiment of the present invention, for investigating the degradation of α-synuclein protein aggregates by treatment with some variant alloferon peptides (DALS1, DAL-VS_V(−Q), DAL1, and DALV2) according to one embodiment of the present invention.
as §1, with “After that, proteinase inhibitors and phosphatase inhibitors (2 μg/ml aprotinin, 2 μg/ml leupeptin, 1 μg/ml pepstatin A, 1 mM phenyl-methylsulfonyl fluoride (PMSF), 1 mM Na3 VO4, 5 mM NaF and 10 mM Na4P2O7) were put into a 6-well culture dish at 200 μl per well to lyse the cells. The obtained cell lysate was first left at 30 min for 4° C.” left out, “analysis.” for “analysis. Then, electrophoresis was performed using 8% to 15% SDS-polyacrylamide gel, and the proteins separated by their sizes were transferred to polyvinylidene difluoride (PVDF) membranes (Millipore, USA). The protein-transferred membranes were then blocked with 3% skim milk powder in TBST for 1 h.”, “Korea). […]” for “Korea).”

Q: For HGVSGHGQHGVHG [LAL], which half-life ([1]; FIG. 1, isolated mouse plasma, read-out: half-life (T1/2)) is on record?
A: Its half-life is 51.8 min.

Q: What about the “stability in plasma over time” value [1] of the same molecule?
A: The value was “degraded early in plasma”.

Q: For “DALVS_V: variant alloferon peptide with glutamine removed, SEQ ID NO: 14, hGVSGhGhGVhG (capital L-type, lowercase D-type) ([dH]GVSG[dH]G[dH]GV[dH]G)”, which “autophagic scavenging activity compared to D-type alloferon peptide (DAL1)” value [2] is on record?
A: The value was “superior autophagic scavenging activity”.

Q: And the “SOD1 protein aggregate dissociating ability compared to DAL1” value [3]?
A: The value was “better protein aggregate dissociating ability”.

Q: Which results are given for “DALV2: variant alloferon peptide, SEQ ID NO: 4, hGvsGhGqhGVhG (capital L-type, lowercase D-type) ([dH]G[dV][dS]G[dH]G[dQ][dH]GV[dH]G)”?
A: amount of β-amyloid ([4]; Western blot of hippocampal sections): significantly reduced; expression of aggregate-forming proteins ([4]; cortex and hippocampus, 20 mg/kg IP, 25 weeks): significantly lower expression; protein aggregate dissociating ability compared to DAL1 ([4]; cortical Western blot analysis): better protein aggregate dissociating ability; autophagic scavenging activity compared to D-type alloferon peptide (DAL1) [2]: superior autophagic scavenging activity; mutant huntingtin protein aggregate dissociating ability compared to DAL1 [5]: better protein aggregate dissociating ability; α-synuclein protein aggregate dissociating ability compared to DAL-1 [6]: better protein aggregate dissociating ability; SOD1 protein aggregate dissociating ability compared to DAL1 [3]: better protein aggregate dissociating ability

Q: With DALVSQV as the molecule, how does the “autophagic scavenging activity compared to D-type alloferon peptide (DAL1)” value [2] read?
A: The value was “superior autophagic scavenging activity”.

Q: With `CC(C)[C@@H](NC(=O)CNC(=O)[C@H](N)Cc1c[nH]cn1)C(=O)N[C@H](CO)C(=O)NCC(=O)N[C@H](Cc1c[nH]cn1)C(=O)NCC(=O)N[C@H](CCC(N)=O)C(=O)N[C@H](Cc1c[nH]cn1)C(=O)NCC(=O)N[C@@H](C(=O)N[C@H](Cc1c[nH]cn1)C(=O)NCC(=O)O)C(C)C` [DAL1] (H-[dH]G[dV][dS]G[dH]G[dQ][dH]G[dV][dH]G-OH; N-terminus and C-terminus assumed) as the molecule, how does the “stability in plasma over time” value [1] read?
A: Its value is “remained stable over time without degradation”.

Q: For “DALV1: variant alloferon peptide, SEQ ID NO: 7, hGVsGhGqhGvhG (capital L-type, lowercase D-type) ([dH]GV[dS]G[dH]G[dQ][dH]G[dV][dH]G)”, which “autophagic scavenging activity compared to D-type alloferon peptide (DAL1)” value [2] is on record?
A: Its value is “superior autophagic scavenging activity”.

Q: Which “autophagic scavenging activity compared to D-type alloferon peptide (DAL1)” value [2] does the source give for “DALS1: variant alloferon peptide, SEQ ID NO: 5, hGvSGhGqhGvhG (capital L-type, lowercase D-type) ([dH]G[dV]SG[dH]G[dQ][dH]G[dV][dH]G)” here?
A: The value was “superior autophagic scavenging activity”.

Q: And the “SOD1 protein aggregate dissociating ability compared to DAL1” value [3]?
A: The value was “better protein aggregate dissociating ability”.

Q: Which “mutant huntingtin protein aggregate dissociating ability compared to DAL1” value [5] does the source give for “DALH1: variant alloferon peptide, SEQ ID NO: 8, HGvsGhGqhGvhG (capital L-type, lowercase D-type) (HG[dV][dS]G[dH]G[dQ][dH]G[dV][dH]G)” here?
A: Its value is “better protein aggregate dissociating ability”.

Q: With “DALVS: variant alloferon peptide, SEQ ID NO: 3, hGVSGhGqhGvhG (capital L-type, lowercase D-type) ([dH]GVSG[dH]G[dQ][dH]G[dV][dH]G)” as the molecule, how does the “autophagic scavenging activity compared to D-type alloferon peptide (DAL1)” value [2] read?
A: Its value is “superior autophagic scavenging activity”.

Q: Which “α-synuclein protein aggregate dissociating ability compared to DAL-1” value [6] does the source give for “DALQ1: variant alloferon peptide, SEQ ID NO: 10, hGvsGhGQhGvhG (capital L-type, lowercase D-type) ([dH]G[dV][dS]G[dH]GQ[dH]G[dV][dH]G)” here?
A: Its value is “better protein aggregate dissociating ability”.
